Assays:
[1] = Induction of anti-CD3 antibodies-stimulated human T cell activation at 1 uM assessed fold increase in CD25 expression measured by ELISA assay; assay type: functional, T cell line; note: reference of the scale not given here
[2] = Induction of anti-CD3/CD28 antibodies-stimulated human T cell activation at 0.3 uM assessed fold increase in IL-2 secretion measured by ELISA assay; assay type: functional, T cell line
[3] = Induction of activation of human CD56+ CD3- NK cells co-cultured with human K562 cells in 5:1 ratio and assessed as increase in TNF-alpha secretion at 1 uM measured by ELISA assay; assay type: functional, Natural killer cell
[4] = Induction of anti-CD3/CD28 antibodies-stimulated human T cell activation at 4 uM assessed fold increase in CD25 expression measured by ELISA assay; assay type: functional, T cell line
[5] = Induction of activation of human CD56+ CD3- NK cells co-cultured with human K562 cells in 5:1 ratio and assessed as increase in IFN-gamma secretion at 10 uM measured by ELISA assay; assay type: functional, Natural killer cell
[6] = Induction of activation of human CD56+ CD3- NK cells co-cultured with human K562 cells in 5:1 ratio and assessed as increase in MIP1beta secretion at 10 uM measured by ELISA assay; assay type: functional, Natural killer cell
[7] = Induction of activation of human CD56+ CD3- NK cells co-cultured with human K562 cells in 1:1 ratio and assessed as increase in IFN-gamma secretion at 10 uM measured by ELISA assay; assay type: functional, Natural killer cell
[8] = Induction of activation of human CD56+ CD3- NK cells co-cultured with human K562 cells in 1:1 ratio and assessed as increase in TNF-alpha secretion at 10 uM measured by ELISA assay; assay type: functional, Natural killer cell
[9] = Induction of anti-CD3 antibodies-stimulated human CD4+ T cell activation in immunocompetent mouse assessed fold increase in CD25 expression at 90 mg/kg, ip administered twice a day; assay type: functional; note: reference of the scale not given here
[10] = Induction of anti-CD3/CD28 antibodies-stimulated human T cell activation at 4 uM assessed fold increase in IL-2 secretion measured by ELISA assay; assay type: functional, T cell line
[11] = Induction of activation of human CD56+ CD3- NK cells co-cultured with human K562 cells in 1:1 ratio and assessed as increase in TNF-alpha secretion at 1 uM measured by ELISA assay; assay type: functional, Natural killer cell
[12] = Induction of activation of human CD56+ CD3- NK cells co-cultured with human K562 cells in 5:1 ratio and assessed as increase in MIP1beta secretion at 1 uM measured by ELISA assay; assay type: functional, Natural killer cell
[13] = Induction of activation of human CD56+ CD3- NK cells co-cultured with human K562 cells in 1:1 ratio and assessed as increase in IFN-gamma secretion at 1 uM measured by ELISA assay; assay type: functional, Natural killer cell
[14] = Induction of activation of human CD56+ CD3- NK cells co-cultured with human K562 cells in 1:1 ratio and assessed as increase in MIP1beta secretion at 10 uM measured by ELISA assay; assay type: functional, Natural killer cell
[15] = Induction of anti-CD3 antibodies-stimulated human T cell activation at 8 uM assessed fold increase in CD25 expression measured by ELISA assay; assay type: functional, T cell line; note: reference of the scale not given here
[16] = Induction of activation of human CD56+ CD3- NK cells co-cultured with human K562 cells in 5:1 ratio and assessed as increase in TNF-alpha secretion at 10 uM measured by ELISA assay; assay type: functional, Natural killer cell
[17] = Induction of activation of human CD56+ CD3- NK cells co-cultured with human K562 cells in 5:1 ratio and assessed as increase in IFN-gamma secretion at 1 uM measured by ELISA assay; assay type: functional, Natural killer cell
[18] = Induction of anti-CD3 antibodies-stimulated human T cell activation at 8 uM assessed fold increase in IL-2 secretion measured by ELISA assay; assay type: functional, T cell line; note: reference of the scale not given here
[19] = Induction of anti-CD3/CD28 antibodies-stimulated human T cell activation at 1 uM assessed fold increase in CD25 expression measured by ELISA assay; assay type: functional, T cell line
[20] = Induction of anti-CD3 antibodies-stimulated human T cell activation at 1 uM assessed fold increase in IL-2 secretion measured by ELISA assay; assay type: functional, T cell line; note: reference of the scale not given here
[21] = Induction of anti-CD3/CD28 antibodies-stimulated human T cell activation at 0.3 uM assessed fold increase in CD25 expression measured by ELISA assay; assay type: functional, T cell line
[22] = Induction of activation of human CD56+ CD3- NK cells co-cultured with human K562 cells in 1:1 ratio and assessed as increase in MIP1beta secretion at 1 uM measured by ELISA assay; assay type: functional, Natural killer cell
[23] = Induction of anti-CD3/CD28 antibodies-stimulated human T cell activation at 1 uM assessed fold increase in IL-2 secretion measured by ELISA assay; assay type: functional, T cell line
[24] = Induction of anti-CD3 antibodies-stimulated human CD8+ T cell activation in immunocompetent mouse assessed fold increase in CD25 expression at 90 mg/kg, ip administered twice a day; assay type: functional; note: reference of the scale not given here
[25] = Induction of anti-CD3 antibodies-stimulated human exhausted T cell activation assessed fold increase in IL-2 secretion measured by ELISA assay; assay type: functional, T cell line; note: reference of the scale not given here
[26] = Induction of anti-CD3 antibodies-stimulated human exhausted T cell activation assessed fold increase in GM-CSF secretion measured by ELISA assay; assay type: functional, T cell line; note: reference of the scale not given here
[27] = Induction of anti-CD3 antibodies-stimulated human CD4+ T cell activation in immunocompetent mouse assessed fold increase in CD25 expression at 180 mg/kg, po administered twice a day; assay type: functional; note: reference of the scale not given here
[28] = Induction of anti-CD3 antibodies-stimulated human exhausted CD4+ T cell activation assessed fold increase in CTLA4 expression measured by flow cytometry analysis; assay type: functional, T cell line; note: reference of the scale not given here
[29] = Induction of anti-CD3/CD28 antibodies-stimulated human anergic T cell activation at 1.11 uM assessed fold increase in IFN-gamma secretion measured by ELISA assay; assay type: functional, T cell line
[30] = Induction of activation of human CD56+ CD3- NK cells co-cultured with human K562 cells in 1:1 ratio and assessed as increase in TNF-alpha secretion at 0.625 uM measured by ELISA assay; assay type: functional, Natural killer cell
[31] = Induction of anti-CD3/CD28 antibodies-stimulated human anergic T cell activation at 10 uM assessed fold increase in IFN-gamma secretion measured by ELISA assay; assay type: functional, T cell line
[32] = Induction of anti-CD3 antibodies-stimulated human CD8+ T cell activation in immunocompetent mouse assessed fold increase in CD25 expression at 90 mg/kg, ip administered thrice a day; assay type: functional; note: reference of the scale not given here
[33] = Induction of activation of human CD56+ CD3- NK cells co-cultured with human K562 cells in 1:1 ratio and assessed as increase in IFN-gamma secretion at 2.5 uM measured by ELISA assay; assay type: functional, Natural killer cell
[34] = system: B cell; test: Induction of anti-IgM-stimulated human CD20+ B cell activation at 10 to 1000 uM assessed as increase in CD69 expression measured as mean fluorescence intensity AUC by flow cytometry analysis; assay type: functional, cell-based; conditions: dose 10-1000 µM
[35] = Induction of allogenic human T cell activation at 3 uM assessed fold increase in cell proliferation; assay type: functional, T cell line
[36] = Induction of activation of human CD56+ CD3- NK cells co-cultured with human K562 cells in 1:1 ratio and assessed as increase in IFN-gamma secretion at 0.625 uM measured by ELISA assay; assay type: functional, Natural killer cell
[37] = target: T1, E3 ubiquitin-protein ligase CBL-B (Homo sapiens, UniProt Q13191); test: Inhibition of N-terminal Avi-tagged human CBL-B (36 to 427 residues) incubated with 60 nM Src kinase for 1.5 hrs followed by incubation with fluorescently labeled UbcH5B-Ub for 1 hr and measured by TR-FRET assay; assay type: single protein
T1 sequence (Q13191 whole entry, the tested form may be a part): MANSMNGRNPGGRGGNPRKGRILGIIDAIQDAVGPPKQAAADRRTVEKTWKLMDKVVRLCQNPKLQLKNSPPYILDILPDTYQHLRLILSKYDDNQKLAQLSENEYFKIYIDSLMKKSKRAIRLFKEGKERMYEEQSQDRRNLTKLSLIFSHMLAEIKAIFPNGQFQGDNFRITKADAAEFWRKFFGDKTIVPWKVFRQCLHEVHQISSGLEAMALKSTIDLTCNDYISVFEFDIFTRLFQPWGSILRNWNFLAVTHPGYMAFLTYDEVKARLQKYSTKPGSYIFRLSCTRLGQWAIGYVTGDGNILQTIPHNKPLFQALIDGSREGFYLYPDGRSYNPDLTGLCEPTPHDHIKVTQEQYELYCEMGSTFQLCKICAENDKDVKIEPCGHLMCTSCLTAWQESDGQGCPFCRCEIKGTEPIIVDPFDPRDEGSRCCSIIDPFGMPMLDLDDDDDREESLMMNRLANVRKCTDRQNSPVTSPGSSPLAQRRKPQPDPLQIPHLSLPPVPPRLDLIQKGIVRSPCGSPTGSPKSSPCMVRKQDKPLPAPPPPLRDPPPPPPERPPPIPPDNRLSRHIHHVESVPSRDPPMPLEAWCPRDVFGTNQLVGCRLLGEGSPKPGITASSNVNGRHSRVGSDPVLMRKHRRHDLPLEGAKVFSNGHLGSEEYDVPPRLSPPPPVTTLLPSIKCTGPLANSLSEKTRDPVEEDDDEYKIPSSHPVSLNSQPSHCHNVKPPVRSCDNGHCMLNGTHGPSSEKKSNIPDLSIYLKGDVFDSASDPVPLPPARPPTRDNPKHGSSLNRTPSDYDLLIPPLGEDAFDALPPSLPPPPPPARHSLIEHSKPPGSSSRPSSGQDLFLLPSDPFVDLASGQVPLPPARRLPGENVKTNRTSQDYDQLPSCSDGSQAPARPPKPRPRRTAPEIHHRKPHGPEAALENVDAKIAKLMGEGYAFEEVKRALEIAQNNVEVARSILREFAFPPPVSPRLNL

[38] = Induction of anti-CD3 antibodies-stimulated human CD8+ T cell activation in immunocompetent mouse assessed fold increase in CD25 expression at 45 mg/kg, po administered twice a day; assay type: functional; note: reference of the scale not given here
[39] = Induction of activation of human CD56+ CD3- NK cells co-cultured with human K562 cells in 1:1 ratio and assessed as increase in TNF-alpha secretion at 2.5 uM measured by ELISA assay; assay type: functional, Natural killer cell
[40] = Induction of anti-CD3 antibodies-stimulated human exhausted T cell activation assessed fold increase in IFN-gamma secretion measured by ELISA assay; assay type: functional, T cell line; note: reference of the scale not given here
[41] = Induction of anti-CD3 antibodies-stimulated human CD8+ T cell activation in immunocompetent mouse assessed fold increase in CD25 expression at 135 mg/kg, po administered twice a day; assay type: functional; note: reference of the scale not given here
[42] = Induction of allogenic human T cell activation at 10 uM assessed fold increase in cell proliferation; assay type: functional, T cell line
[43] = Induction of anti-CD3 antibodies-stimulated human CD8+ T cell activation in immunocompetent mouse assessed fold increase in CD25 expression at 180 mg/kg, po administered twice a day; assay type: functional; note: reference of the scale not given here
[44] = Induction of anti-CD3/CD28 antibodies-stimulated human anergic T cell activation at 0.37 uM assessed fold increase in IFN-gamma secretion measured by ELISA assay; assay type: functional, T cell line
[45] = Induction of anti-CD3 antibodies-stimulated human exhausted CD8+ T cell activation assessed fold increase in CTLA4 expression measured by flow cytometry analysis; assay type: functional, T cell line; note: reference of the scale not given here
[46] = Induction of anti-CD3 antibodies-stimulated human CD4+ T cell activation in immunocompetent mouse assessed fold increase in CD25 expression at 90 mg/kg, po administered twice a day; assay type: functional; note: reference of the scale not given here
[47] = Induction of anti-CD3 antibodies-stimulated human CD8+ T cell activation in immunocompetent mouse assessed fold increase in CD25 expression at 45 mg/kg, ip administered twice a day; assay type: functional; note: reference of the scale not given here
[48] = Induction of anti-CD3 antibodies-stimulated human CD4+ T cell activation in immunocompetent mouse assessed fold increase in CD25 expression at 45 mg/kg, ip administered twice a day; assay type: functional; note: reference of the scale not given here
[49] = Induction of anti-CD3 antibodies-stimulated human CD4+ T cell activation in immunocompetent mouse assessed fold increase in CD25 expression at 135 mg/kg, po administered twice a day; assay type: functional; note: reference of the scale not given here
[50] = Induction of anti-CD3 antibodies-stimulated human CD8+ T cell activation in immunocompetent mouse assessed fold increase in CD25 expression at 90 mg/kg, po administered twice a day; assay type: functional; note: reference of the scale not given here
[51] = Induction of anti-CD3 antibodies-stimulated human CD4+ T cell activation in immunocompetent mouse assessed fold increase in CD25 expression at 45 mg/kg, po administered twice a day; assay type: functional; note: reference of the scale not given here
[52] = target: T1, E3 ubiquitin-protein ligase CBL-B; test: Binding affinity towards N-terminal biotinylated Avi-tagged human CBL-B (36 to 427 residues) measured by surface plasmon resonance assay

## C[C@H](Cc1nncn1C)c1cccc(NC(=O)c2ccnc(C(F)(F)F)n2)c1
[1]
  fold change (FC): 0.801
[2]
  fold change (FC): 1.01
[3]
  fold change (FC): 2.01
[4]
  fold change (FC): >=1.76
[5]
  fold change (FC): >=5
[6]
  fold change (FC): 2.01
[7]
  fold change (FC): 2.01
[8]
  fold change (FC): 2.01
[9]
  fold change (FC): 1.51
[10]
  fold change (FC): >=7.5
[11]
  fold change (FC): <=1
[12]
  fold change (FC): 1.01
[13]
  fold change (FC): 1.01
[14]
  fold change (FC): 2.01
[15]
  fold change (FC): >=1.001
[16]
  fold change (FC): >=5
[17]
  fold change (FC): 2.01
[18]
  fold change (FC): >=0.201
[19]
  fold change (FC): >=1.76
[20]
  fold change (FC): >=0.201
[21]
  fold change (FC): 1.51
[22]
  fold change (FC): 1.01
[23]
  fold change (FC): 2.51
[24]
  fold change (FC): 1

## Cn1cnnc1CC1(c2cccc(NC(=O)c3cc(CN4CCC5(CC5)C4)cc(C4CC4)n3)c2)COC1
[1]
  fold change (FC): >=1.001
[2]
  fold change (FC): >=7.5
[25]
  fold change (FC): 2.51
[26]
  fold change (FC): >1.61
[27]
  fold change (FC): >2.5
[28]
  fold change (FC): >1.61
[29]
  fold change (FC): >4.01
[30]
  fold change (FC): >=5
[31]
  fold change (FC): >4.01
[32]
  fold change (FC): 1
[33]
  fold change (FC): >=5
[34]
  AUC: > 1.51
[7]
  fold change (FC): >=5
[8]
  fold change (FC): >=5
[9]
  fold change (FC): 1.51
[35]
  fold change (FC): >3
[36]
  fold change (FC): 2.01
[37]
  IC50: < 100 nM
[38]
  fold change (FC): 1
[39]
  fold change (FC): 1.01
[40]
  fold change (FC): >1.61
[41]
  fold change (FC): 1
[42]
  fold change (FC): >3
[43]
  fold change (FC): 1.51
[44]
  fold change (FC): >4.01
[19]
  fold change (FC): 1.31
[20]
  fold change (FC): >=0.201
[45]
  fold change (FC): >1.61
[21]
  fold change (FC): 1.31
[23]
  fold change (FC): >=7.5
[46]
  fold change (FC): >2.5

## C[C@H](Cc1nncn1C)c1cccc(NC(=O)c2cc(C3CC3)cc(C(F)(F)F)n2)c1
[47]
  fold change (FC): 1
[1]
  fold change (FC): >=1.001
[2]
  fold change (FC): 2.51
[3]
  fold change (FC): 2.01
[27]
  fold change (FC): 1
[4]
  fold change (FC): 1.51
[5]
  fold change (FC): >=5
[48]
  fold change (FC): 1.51
[6]
  fold change (FC): 1.01
[7]
  fold change (FC): 2.01
[49]
  fold change (FC): 2.01
[8]
  fold change (FC): 1.01
[10]
  fold change (FC): >=7.5
[37]
  IC50: < 100 nM
[11]
  fold change (FC): 2.01
[12]
  fold change (FC): 1.01
[13]
  fold change (FC): 2.01
[50]
  fold change (FC): 1
[14]
  fold change (FC): 1.01
[41]
  fold change (FC): 1
[43]
  fold change (FC): 1
[15]
  fold change (FC): >=1.001
[16]
  fold change (FC): 2.01
[17]
  fold change (FC): 2.01
[18]
  fold change (FC): >=0.201
[19]
  fold change (FC): 1.51
[20]
  fold change (FC): >=0.201
[21]
  fold change (FC): 1.31
[51]
  fold change (FC): 1
[52]
  Kd: < 100 nM
[22]
  fold change (FC): 1.01
[23]
  fold change (FC): 5
[46]
  fold change (FC): 1

From ChEMBL document CHEMBL5050844 (2019)
